Results from paper PMC6930480, “Inhibition of Porcine Aminopeptidase M (pAMP) by the Pentapeptide Microginins” (Molecules, 2019).
Peptide text beside a SMILES is read from it.

Target: T1, porcine aminopeptidase M (EC 3.4.11.2) (Sus scrofa, UniProt P15145)
T1 construct: purchased Sigma Aldrich; host or cells: pig kidney (tissue-derived)
T1 sequence (P15145 1-963): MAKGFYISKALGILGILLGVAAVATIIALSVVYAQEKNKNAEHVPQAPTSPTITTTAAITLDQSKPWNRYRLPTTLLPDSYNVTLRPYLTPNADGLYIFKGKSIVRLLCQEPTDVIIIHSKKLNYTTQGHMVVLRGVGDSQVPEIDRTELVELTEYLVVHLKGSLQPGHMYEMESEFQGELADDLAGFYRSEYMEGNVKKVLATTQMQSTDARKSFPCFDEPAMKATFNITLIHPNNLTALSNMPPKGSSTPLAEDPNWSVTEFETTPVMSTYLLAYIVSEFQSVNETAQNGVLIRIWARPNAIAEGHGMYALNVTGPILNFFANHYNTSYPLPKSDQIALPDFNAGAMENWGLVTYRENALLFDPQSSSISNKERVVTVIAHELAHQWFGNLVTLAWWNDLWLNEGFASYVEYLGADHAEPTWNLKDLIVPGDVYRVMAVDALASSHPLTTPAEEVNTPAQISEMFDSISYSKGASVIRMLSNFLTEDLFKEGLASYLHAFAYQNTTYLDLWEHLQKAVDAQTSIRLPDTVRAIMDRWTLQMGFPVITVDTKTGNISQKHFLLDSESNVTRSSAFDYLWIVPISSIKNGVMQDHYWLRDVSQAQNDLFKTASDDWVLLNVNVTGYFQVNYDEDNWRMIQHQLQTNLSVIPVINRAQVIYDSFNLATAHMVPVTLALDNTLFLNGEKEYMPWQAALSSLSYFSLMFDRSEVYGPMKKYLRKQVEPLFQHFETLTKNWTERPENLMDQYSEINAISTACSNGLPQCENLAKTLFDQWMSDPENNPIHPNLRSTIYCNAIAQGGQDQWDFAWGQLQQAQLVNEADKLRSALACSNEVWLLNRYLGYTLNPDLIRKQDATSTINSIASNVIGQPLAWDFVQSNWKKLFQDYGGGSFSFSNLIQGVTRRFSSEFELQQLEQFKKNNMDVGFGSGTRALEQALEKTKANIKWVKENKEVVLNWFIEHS
Experiment: Aminopeptidase M inhibition, spectrophotometric, L-leucine-p-nitroanilide substrate
Format: biochemical
Conditions: porcine AMP from pig kidney, 1 mU mL^-1; 0.1 M borate buffer pH 8.0; 30 min pre-incubation at 30 °C; inhibitor 0.1-10 μM; L-leucine-p-nitroanilide 1.2 mM; absorbance 405 nm; triplicate, average of three independent experiments
Description: Inhibition assay spectrophotometrically performed using porcine aminopeptidase M (EC 3.4.11.2, from pig kidney—Sigma Aldrich®). After 30 min pre-incubation at 30 °C, 5 μL of the commercial aminopeptidase M enzyme (1 mU mL^−1) added to microginin solutions (concentrations of 0.1, 0.25, 0.5, 1, 5 and 10 μM). […] The final volume at the 96-well plates was 75 μL (medium composed of 0.1 M borate buffer, Ph 8.0). After 30 min pre-incubation, 30 μL of the L-leucine-p-nitroanilide substrate at the concentration of 1.2 mM were added for the microginins AMP inhibition assays. The kinetics of inhibition of AMP were determined and the reaction interrupted with the addition of 25 μL of 30% acetic acid solution.
To obtain the factor used for the calculation of specific activity, a standard curve was performed with the product of the reaction (p-nitroanilide 1 mM), obtaining the slope of the curve. Absorbance reading was performed on the Spectra Max M2-Molecular Devices® 96-well plate reader with SoftMax Pro® software version 5.3, and the p-nitroanilide product concentrations were determined by the millimolar extinction coefficient at 405 nm as 9.96 (Sigma-Aldrich). After reading the samples, the residual activity calculations performed in mU mL^−1, percentage of activity and inhibition. […]

For `CCCCCCC[C@@H](N)[C@H](O)C(=O)N[C@H](C(=O)N[C@@H](CC(C)C)C(=O)N[C@@H](CCc1ccc(O)cc1)C(=O)N[C@@H](Cc1ccc(O)cc1)C(=O)O)C(C)C` [MG756, Ahda-Val-Leu-HTy-Tyr] (HELM PEPTIDE1{[CCCCCCC[C@@H](N)[C@H](O)C(=O)[*:2]].V.L.[O=C([C@H](CCc1ccc(O)cc1)N[*:1])[*:2]].Y}$$$$V2.0), the IC50 was 3260 ± 500 nM.

Work on `CCCCCCC[C@@H](NC)[C@H](O)C(=O)N[C@H](C(=O)N[C@@H](CC(C)C)C(=O)N[C@@H](CCc1ccc(O)cc1)C(=O)N[C@@H](Cc1ccc(O)cc1)C(=O)O)C(C)C` [MG770, N-Me-Ahda-Val-Leu-HTy-Tyr] (HELM PEPTIDE1{[CCCCCCC[C@@H](NC)[C@H](O)C(=O)[*:2]].V.L.[O=C([C@H](CCc1ccc(O)cc1)N[*:1])[*:2]].Y}$$$$V2.0) yielded an IC50 of 1200 ± 100 nM.
